{
  "source": "patent US6100247A",
  "about": "“Method of treating diabetic neuropathy” (BioNumerik Pharmaceuticals, Inc., priority 1999, dated 2000)",
  "key": {"humans": {"tested_on": "humans", "details": "in vivo; cited from earlier work"}, "dogs": {"tested_on": "dogs", "details": "dog, in vivo; cited from earlier work"}, "mice": {"tested_on": "mice", "details": "mouse, in vivo; cited from earlier work"}, "[1]": {"target": "T1, aldose reductase (human recombinant, expressed in SF 9 cells) (Homo sapiens, UniProt P15121)", "T1 construct": "host or cells: SF 9 cells", "test": "Aldose reductase assay, reduction of glucose to sorbitol (NADPH oxidation, absorbance at 340 nm)", "assay_type": "biochemical", "details": "Lineweaver Burk plots nearly parallel; glucose and glyceraldehyde substrates", "experimental": "Aldose reductase assays were as described in Nishimura C., Yamaoka T., Mizutani M., Yamashita K., Akera T., Tanimoto T., Purification And Characterization Of The Recombinant Human Aldose Reductase Expressed In Baculovirus System, Biochem. Biophys. Acta, Jun. 24, 1991; 1078(2):171-8.\nBriefly, Dimesna (0-20 μM) was incubated at 37° C. with aldose reductase (0.0016 units, human recombinant, expressed in SF 9 cells) and NADPH (0.15 mM) in sodium phosphate buffer (100 mM, pH 6.2). To initiate assays, glucose (10-150 mM) was added to reactions and the decrease in absorbance at 340 nm (oxidation of NADPH) was monitored. Assays were run in duplicate or triplicate. Slopes were calculated using Varian-Cary software package 2.0 and averaged. In all cases errors were 4% or less. Lineweaver Burk analysis (Enzyme Kinetics, version 1.61) was used to calculate inhibition constants."}},
  "data": [
    {"smiles": "O=S(=O)([O-])CCSSCCS(=O)(=O)[O-].[Na+].[Na+]", "values": [
      {"measurement": "Adverse effects after administration to humans", "setting": "humans", "result": "no adverse effects"},
      {"measurement": "Adverse effects after intravenous administration", "setting": "dogs", "result": "no adverse effects"},
      {"measurement": "Adverse effects after intravenous administration", "setting": "mice", "result": "no adverse effects"},
      {"measurement": "Mode of inhibition of the aldose reductase reaction", "setting": "[1]", "result": "uncompetitive inhibition"}
    ]}
  ]
}
